Laboratory results published in patent publication US9751887B2, “Imidazo[1,2-b]pyridazine derivatives as kinase inhibitors” (Daiichi Sankyo Company, Limited, priority 2012, dated 2017).
Like-named read-outs stand apart in the source and are kept apart here.

Experiments:
ROS1 [1] = molecular target: T1, ROS1 (Homo sapiens, UniProt P08922); assay: ROS1 autophosphorylation inhibitory activity evaluation (ADP-Glo); format: biochemical; settings: 200 nM inactive ROS1, ATP 1 mM, 25° C. 1.5 hours, ADP generated, four separate measurements
T1 construct: purchased Carna Biosciences 08-163
T1 sequence (P08922 28-2347): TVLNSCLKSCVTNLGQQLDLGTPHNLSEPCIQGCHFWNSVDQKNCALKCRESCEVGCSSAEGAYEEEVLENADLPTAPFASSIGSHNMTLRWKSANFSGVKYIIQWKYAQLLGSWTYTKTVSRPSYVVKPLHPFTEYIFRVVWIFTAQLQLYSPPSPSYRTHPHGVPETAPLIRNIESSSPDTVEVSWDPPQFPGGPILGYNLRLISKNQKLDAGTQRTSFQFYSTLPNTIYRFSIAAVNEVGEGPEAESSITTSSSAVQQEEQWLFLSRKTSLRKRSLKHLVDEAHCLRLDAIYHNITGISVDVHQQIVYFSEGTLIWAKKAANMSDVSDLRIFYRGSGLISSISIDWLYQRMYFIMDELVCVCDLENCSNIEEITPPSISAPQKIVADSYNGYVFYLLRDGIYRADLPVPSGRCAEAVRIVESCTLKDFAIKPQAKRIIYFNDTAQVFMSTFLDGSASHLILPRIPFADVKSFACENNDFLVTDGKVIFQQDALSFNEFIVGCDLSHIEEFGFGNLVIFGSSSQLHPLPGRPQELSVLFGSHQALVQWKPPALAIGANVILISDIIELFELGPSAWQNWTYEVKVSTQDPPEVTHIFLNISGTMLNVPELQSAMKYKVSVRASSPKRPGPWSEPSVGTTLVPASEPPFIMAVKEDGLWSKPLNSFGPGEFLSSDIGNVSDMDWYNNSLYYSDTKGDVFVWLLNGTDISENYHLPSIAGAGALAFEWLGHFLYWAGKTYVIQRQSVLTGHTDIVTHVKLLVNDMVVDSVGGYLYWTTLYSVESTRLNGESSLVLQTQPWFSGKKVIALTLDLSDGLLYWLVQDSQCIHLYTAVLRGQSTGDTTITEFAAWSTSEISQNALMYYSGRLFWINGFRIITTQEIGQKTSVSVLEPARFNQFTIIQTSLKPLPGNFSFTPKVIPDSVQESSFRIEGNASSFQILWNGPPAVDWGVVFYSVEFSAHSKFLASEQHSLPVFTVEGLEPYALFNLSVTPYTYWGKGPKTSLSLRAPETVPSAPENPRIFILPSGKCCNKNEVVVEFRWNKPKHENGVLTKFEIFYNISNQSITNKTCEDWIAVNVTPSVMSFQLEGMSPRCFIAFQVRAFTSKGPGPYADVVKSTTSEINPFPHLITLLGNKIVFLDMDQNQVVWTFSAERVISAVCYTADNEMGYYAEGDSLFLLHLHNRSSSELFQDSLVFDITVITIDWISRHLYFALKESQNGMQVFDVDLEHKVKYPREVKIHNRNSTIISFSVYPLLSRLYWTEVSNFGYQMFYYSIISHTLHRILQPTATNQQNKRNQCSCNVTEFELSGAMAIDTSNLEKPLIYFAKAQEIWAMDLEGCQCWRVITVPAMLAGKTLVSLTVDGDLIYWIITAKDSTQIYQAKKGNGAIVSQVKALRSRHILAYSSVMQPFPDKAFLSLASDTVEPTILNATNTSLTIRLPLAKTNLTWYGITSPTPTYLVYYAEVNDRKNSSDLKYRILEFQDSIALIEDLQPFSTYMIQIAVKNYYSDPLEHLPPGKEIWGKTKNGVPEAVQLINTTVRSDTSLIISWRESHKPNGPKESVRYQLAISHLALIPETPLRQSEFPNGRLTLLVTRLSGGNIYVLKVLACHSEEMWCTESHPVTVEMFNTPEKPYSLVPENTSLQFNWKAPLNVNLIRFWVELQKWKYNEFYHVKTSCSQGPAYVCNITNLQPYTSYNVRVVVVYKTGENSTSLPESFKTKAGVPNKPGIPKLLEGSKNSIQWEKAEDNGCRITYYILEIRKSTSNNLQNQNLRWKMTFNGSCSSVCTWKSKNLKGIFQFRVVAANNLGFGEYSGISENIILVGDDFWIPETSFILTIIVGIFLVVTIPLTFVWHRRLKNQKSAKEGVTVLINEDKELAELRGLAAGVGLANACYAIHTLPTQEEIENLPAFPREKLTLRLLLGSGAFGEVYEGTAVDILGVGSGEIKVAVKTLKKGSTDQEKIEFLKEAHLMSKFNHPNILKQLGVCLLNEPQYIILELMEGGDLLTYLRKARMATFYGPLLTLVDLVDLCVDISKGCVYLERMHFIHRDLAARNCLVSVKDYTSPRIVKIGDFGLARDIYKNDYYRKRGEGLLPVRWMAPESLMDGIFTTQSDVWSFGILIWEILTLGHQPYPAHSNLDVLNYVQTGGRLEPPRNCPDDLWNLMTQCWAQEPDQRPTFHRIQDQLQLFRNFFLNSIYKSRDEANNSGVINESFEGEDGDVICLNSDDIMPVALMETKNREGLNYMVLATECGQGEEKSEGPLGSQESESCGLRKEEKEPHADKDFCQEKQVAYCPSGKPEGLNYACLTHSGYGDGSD
Method in brief: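 ROS1 autophosphorylation ran with 1 mM final ATP in 50 mM HEPES pH 7.5, 10 mM MgCl2, 0.01% Brij-58, 2.5 mM DTT for 1.5 h at 25° C. ADP generated was read by ADP-Glo luminescence. IC50 values were obtained by curve fitting.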

ROS1 [2] = molecular target: T1, ROS1; assay: ROS1 kinase inhibitory activity evaluation (mobility shift, EZ Reader II); format: biochemical; settings: ROS1 25 pg/μL, FL-Peptide 22 substrate, three separate measurements
Method: Next, a substrate reaction solution was prepared. […] Then, the reaction stop solution was added thereto at a concentration of 40 μL/well. Substrate phosphorylation intensity was measured using EZ Reader II (Caliper Life Sciences).

[3] = test system: HCC78 cells having ROS1 fusion gene; assay: HCC78 cell growth assay (CellTiter-Glo); format: cell-based; settings: Homo sapiens, 72 hours culture, 2% FBS medium, luminescence, four separate measurements, read-out: growth inhibitory effect on HCC78 cells having ROS1 fusion gene IC50

SMILES	IC50 (ROS1 [1]) [nM]	IC50 (ROS1 [2]) [nM]	IC50 ([3]; HCC78, 72 h) [nM]	IC50 ([3]; HCC78) [nM]
CN1CCC[C@H]1COc1cccc(-c2cnc3ccc(NCc4ccccc4)nn23)c1 [Example 8, N-Benzyl-3-[3-[[(2S)-1-methylpyrrolidin-2-yl]methoxy]phenyl]imidazo[1,2-b]pyridazin-6-amine]	20 to 100	1 to 10	20 to 100	
CN(Cc1cccnc1)c1ccc2ncc(-c3ccc(N4C[C@@H](N)CC4=O)cc3)n2n1 [Example 117, (4S)-4-Amino-1-[4-[6-[methyl(3-pyridylmethyl)amino]imidazo[1,2-b]pyridazin-3-yl]phenyl]pyrrolidin-2-one]	20 to 100	1 to 10		20 to 100
c1ccc(CNc2ccc3ncc(-c4cccc(OC[C@@H]5CCCN5)c4)n3n2)cc1 [Example 2, N-Benzyl-3-[3-[[(2S)-pyrrolidin-2-yl]methoxy]phenyl]imidazo[1,2-b]pyridazin-6-amine]	20 to 100	1 to 10	100 to 600	
CN(Cc1cccc(C#N)c1)c1ccc2ncc(-c3ccc(N4C[C@@H](N)CC4=O)cc3)n2n1 [Example 121, 3-[[[3-[4-[(4S)-4-Amino-2-oxopyrrolidin-1-yl]phenyl]imidazo[1,2-b]pyridazin-6-yl]-methylamino]methyl]benzonitrile]	20 to 100	1 to 10	20 to 100	
c1ccc(CNc2ccc3ncc(-c4ccc(OC[C@@H]5CCNC5)cc4)n3n2)cc1 [Example 5, N-Benzyl-3-[4-[[(3R)-pyrrolidin-3-yl]methoxy]phenyl]imidazo[1,2-b]pyridazin-6-amine]	20 to 100	1 to 10	20 to 100	
C[C@@H](Nc1ccc2ncc(-c3ccc(OC[C@@H]4CCCN4)c(C#N)c3)n2n1)c1cccc(F)c1 [Example 48, 5-[6-[[(1R)-1-(3-Fluorophenyl)ethyl]amino]imidazo[1,2-b]pyridazin-3-yl]-2-[[(2S)-pyrrolidin-2-yl]methoxy]benzonitrile]	< 20	< 1	< 20	
C[C@@H](Nc1ccc2ncc(-c3cc(F)cc(OC[C@@H]4CCN4)c3)n2n1)c1cccc(F)c1 [Example 62, 3-[3-[[(2S)-Azetidin-2-yl]methoxy]-5-fluoro-phenyl]-N-[(1R)-1-(3-fluorophenyl)ethyl]imidazo[1,2-b]pyridazin-6-amine]	20 to 100	< 1	20 to 100	
CN(Cc1cccc(F)c1)c1ccc2ncc(-c3ccc(OC[C@@H]4CCCN4)cc3)n2n1 [Example 10, N-[(3-Fluorophenyl)methyl]-N-methyl-3-[4-[[(2S)-pyrrolidin-2-yl]methoxy]phenyl]imidazo[1,2-b]pyridazin-6-amine]	20 to 100	1 to 10	100 to 600	
C[C@@H](Oc1ccc2ncc(-c3ccc(N4C[C@H](N)CC4=O)cc3)n2n1)c1cccc(F)c1 [Example 78, (4R)-4-Amino-1-[4-[6-[(1R)-1-(3-fluorophenyl)ethoxy]imidazo[1,2-b]pyridazin-3-yl]phenyl]pyrrolidin-2-one]	< 20	1 to 10	20 to 100	
C[C@@H](Nc1ccc2ncc(-c3ccc(SC[C@@H]4CCCN4)cc3)n2n1)c1ccccc1 [Example 20, N-[(1R)-1-Phenylethyl]-3-[4-[[(2S)-pyrrolidin-2-yl]methylsulfanyl]phenyl]imidazo[1,2-b]pyridazin-6-amine]	20 to 100	1 to 10	100 to 600	
C[C@@H](N)COc1cccc(-c2cnc3ccc(N[C@H](C)c4cccc(F)c4)nn23)c1 [Example 60, 3-[3-[(2R)-2-Aminopropoxy]phenyl]-N-[(1R)-1-(3-fluorophenyl)ethyl]imidazo[1,2-b]pyridazin-6-amine]	< 20	1 to 10	20 to 100	
C[C@H](O)[C@@H](N)COc1ccc(-c2cnc3ccc(N[C@H](C)c4cccc(F)c4)nn23)cc1 [Example 55, (2S,3S)-3-Amino-4-[4-[6-[[(1R)-1-(3-fluorophenyl)ethyl]amino]imidazo[1,2-b]pyridazin-3-yl]phenoxy]butan-2-ol]	< 20	< 1	< 20	

Second part, led by results:

IC50 (ROS1 [1]) [nM]	IC50 (ROS1 [2]) [nM]	IC50 ([3]; HCC78, 72 h) [nM]	SMILES	IC50 ([3]; HCC78) [nM]
< 20	1 to 10	20 to 100	C[C@@H](Nc1ccc2ncc(-c3ccc(OC4CNC4)cc3)n2n1)c1cccc(F)c1 [Example 25, 3-[4-(Azetidin-3-yloxy)phenyl]-N-[(1R)-1-(3-fluorophenyl)ethyl]imidazo[1,2-b]pyridazin-6-amine]	
< 20	1 to 10	20 to 100	CN(Cc1cccc(F)c1)c1ccc2ncc(-c3ccc(N4C[C@@H](N)CC4=O)c(C#N)c3)n2n1 [Example 131, 2-[(4S)-4-Amino-2-oxopyrrolidin-1-yl]-5-[6-[(3-fluorophenyl)methyl-methylamino]imidazo[1,2-b]pyridazin-3-yl]benzonitrile]	
< 20	1 to 10	20 to 100	NC1CC(=O)N(c2ccc(-c3cnc4ccc(OCc5cccc(F)c5)nn34)cc2)C1 (stereo not drawn) [Example 73, 4-Amino-1-[4-[6-[(3-fluorophenyl)methoxy]imidazo[1,2-b]pyridazin-3-yl]phenyl]pyrrolidin-2-one]	
< 20	< 1	20 to 100	C[C@@H](Nc1ccc2ncc(-c3ccc(OCCCN(C)C)cc3)n2n1)c1cccc(F)c1 [Example 70, 3-[4-[3-(Dimethylamino)propoxy]phenyl]-N-[(1R)-1-(3-fluorophenyl)ethyl]imidazo[1,2-b]pyridazin-6-amine]	
< 20	1 to 10	20 to 100	C[C@@H](Nc1ccc2ncc(-c3cccc(OCCN)c3)n2n1)c1cccc(F)c1 [Example 67, 3-[3-(2-Aminoethoxy)phenyl]-N-[(1R)-1-(3-fluorophenyl)ethyl]imidazo[1,2-b]pyridazin-6-amine]	
< 20	< 1	< 20	C[C@@H](Nc1ccc2ncc(-c3ccc(N4C[C@@H](N)CC4=O)cc3)n2n1)c1ccccc1 [Example 88, (4S)-4-Amino-1-[4-[6-[[(1R)-1-phenylethyl]amino]imidazo[1,2-b]pyridazin-3-yl]phenyl]pyrrolidin-2-one]	
< 20	< 1	20 to 100	CC(Oc1ccc2ncc(-c3ccc(N4C[C@@H](N)CC4=O)cc3)n2n1)c1cc(F)ccc1-n1nccn1 (stereo partly drawn) [Example 114, (4S)-4-Amino-1-[4-[6-[1-[5-fluoro-2-(triazol-2-yl)phenyl]ethoxy]imidazo[1,2-b]pyridazin-3-yl]phenyl]pyrrolidin-2-one]	
< 20	< 1	< 20	C[C@@H](Nc1ccc2ncc(-c3ccc(OCCN)cc3)n2n1)c1cccc(F)c1 [Example 26, 3-[4-(2-Aminoethoxy)phenyl]-N-[(1R)-1-(3-fluorophenyl)ethyl]imidazo[1,2-b]pyridazin-6-amine]	
< 20	< 1	< 20	C[C@@H](Nc1ccc2ncc(-c3ccc(OC[C@@H](N)CO)cc3)n2n1)c1cccc(F)c1 [Example 56, (2S)-2-Amino-3-[4-[6-[[(1R)-1-(3-fluorophenyl)ethyl]amino]imidazo[1,2-b]pyridazin-3-yl]phenoxy]propan-1-ol]	
